# Measurements as given in PubChem BioAssay (NCI).
#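 Test compounds were applied to cells in 96-well plates for 48 hours at 5 doses. TGI: total growth inhibition.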
# Key:
# Experiment in all cases: DTP human tumour cell line panel, 48 h
# [1] = system: 786-0 renal
# [2] = system: A498 renal
# [3] = system: A549 NSCLC
# [4] = system: ACHN renal
# [5] = system: BT-549 breast
# [6] = system: CAKI-1 renal
# [7] = system: CCRF-CEM leukemia
# [8] = system: COLO 205 colon
# [9] = system: DU-145 prostate
# [10] = system: EKVX NSCLC
# [11] = system: HCC-2998 colon
# [12] = system: HCT-116 colon
# [13] = system: HCT-15 colon
# [14] = system: HL-60(TB) leukemia
# [15] = system: HOP-62 NSCLC
# [16] = system: HOP-92 NSCLC
# [17] = system: HT29 colon
# [18] = system: IGROV1 ovarian
# [19] = system: K-562 leukemia
# [20] = system: KM12 colon
# [21] = system: LOX IMVI melanoma
# [22] = system: M14 melanoma
# [23] = system: MALME-3M melanoma
# [24] = system: MCF7 breast
# [25] = system: MDA-MB-231 breast
# [26] = system: MDA-MB-435
# [27] = system: MDA-N
# [28] = system: MOLT-4 leukemia
# [29] = system: NCI-H226 lung
# [30] = system: NCI-H23 lung
# [31] = system: NCI-H460 lung
# [32] = system: NCI-H522 lung
# [33] = system: NCI/ADR-RES ovarian
# [34] = system: OVCAR-3 ovarian
# [35] = system: OVCAR-4 ovarian
# [36] = system: OVCAR-5 ovarian
# [37] = system: OVCAR-8 ovarian
# [38] = system: PC-3 prostate
# [39] = system: RPMI-8226 leukemia
# [40] = system: RXF 393 renal
# [41] = system: SF-268 CNS
# [42] = system: SF-295 CNS
# [43] = system: SF-539 CNS
# [44] = system: SK-MEL-2 melanoma
# [45] = system: SK-MEL-28 melanoma
# [46] = system: SK-MEL-5 melanoma
# [47] = system: SK-OV-3 ovarian
# [48] = system: SN12C renal
# [49] = system: SNB-19 CNS
# [50] = system: SR leukemia
# [51] = system: SW-620 colon
# [52] = system: T-47D breast
# [53] = system: TK-10 renal
# [54] = system: U251 CNS
# [55] = system: UACC-257 melanoma
# [56] = system: UACC-62 melanoma
# [57] = system: UO-31 renal
# [58] = system: HS 578T breast
# [59] = system: SNB-75 CNS
smiles,measurement,setting,value
COC(=O)C1=C(C)NC(C)=C(C(=O)OC)C1c1cccc(N=O)c1,TGI,[1],30.3 µM
same,TGI,[2],98.2 µM
same,TGI,[3],> 100 µM
same,TGI,[4],27.6 µM
same,TGI,[5],31 µM
same,TGI,[6],22.4 µM
same,TGI,[7],> 100 µM
same,TGI,[8],32.6 µM
same,TGI,[9],29.7 µM
same,TGI,[10],36 µM
same,TGI,[11],45.9 µM
same,TGI,[12],23.9 µM
same,TGI,[13],32.5 µM
same,TGI,[14],25.8 µM
same,TGI,[15],56.2 µM
same,TGI,[16],20.1 µM
same,TGI,[17],34 µM
same,TGI,[18],30.6 µM
same,TGI,[19],> 100 µM
same,TGI,[20],30.2 µM
same,TGI,[21],31.6 µM
same,TGI,[22],27 µM
same,TGI,[23],28.8 µM
same,TGI,[24],40.1 µM
same,TGI,[25],27.9 µM
same,TGI,[26],29.7 µM
same,TGI,[27],26.2 µM
same,TGI,[28],> 100 µM
same,TGI,[29],37.8 µM
same,TGI,[30],36.2 µM
same,TGI,[31],31 µM
same,TGI,[32],11.8 µM
same,TGI,[33],51 µM
same,TGI,[34],29 µM
same,TGI,[35],26.2 µM
same,TGI,[36],32.3 µM
same,TGI,[37],28.5 µM
same,TGI,[38],31.7 µM
same,TGI,[39],> 100 µM
same,TGI,[40],26.8 µM
same,TGI,[41],30.8 µM
same,TGI,[42],> 100 µM
same,TGI,[43],33.5 µM
same,TGI,[44],30.9 µM
same,TGI,[45],30.4 µM
same,TGI,[46],29.8 µM
same,TGI,[47],44.3 µM
same,TGI,[48],33.3 µM
same,TGI,[49],> 100 µM
same,TGI,[50],> 100 µM
same,TGI,[51],17.7 µM
same,TGI,[52],40.4 µM
same,TGI,[53],28.2 µM
same,TGI,[54],30.7 µM
same,TGI,[55],30.2 µM
same,TGI,[56],27.6 µM
same,TGI,[57],21 µM
C=C1C(=O)O[C@@H]2C[C@@]3(C)CC(=O)C=C(C)[C@@H]3C[C@H]12,TGI,[1],31.5 µM
same,TGI,[3],> 100 µM
same,TGI,[4],8.69 µM
same,TGI,[5],27.6 µM
same,TGI,[6],21.6 µM
same,TGI,[7],> 100 µM
same,TGI,[8],11.4 µM
same,TGI,[9],16.1 µM
same,TGI,[10],28.8 µM
same,TGI,[11],28.1 µM
same,TGI,[12],20.2 µM
same,TGI,[13],15.2 µM
same,TGI,[14],4.08 µM
same,TGI,[15],34.4 µM
same,TGI,[16],55 µM
same,TGI,[58],99.7 µM
same,TGI,[17],24.6 µM
same,TGI,[18],32.2 µM
same,TGI,[20],37.9 µM
same,TGI,[21],38.1 µM
same,TGI,[22],32.7 µM
same,TGI,[23],21.7 µM
same,TGI,[24],14.9 µM
same,TGI,[25],34 µM
same,TGI,[26],30.5 µM
same,TGI,[27],17.2 µM
same,TGI,[28],21.8 µM
same,TGI,[29],> 100 µM
same,TGI,[30],29.9 µM
same,TGI,[32],20.3 µM
same,TGI,[33],40.4 µM
same,TGI,[34],19.9 µM
same,TGI,[35],23.2 µM
same,TGI,[36],32.9 µM
same,TGI,[37],42.9 µM
same,TGI,[38],36.3 µM
same,TGI,[39],5.45 µM
same,TGI,[40],18.2 µM
same,TGI,[41],42.5 µM
same,TGI,[42],> 100 µM
same,TGI,[43],36.2 µM
same,TGI,[44],29.8 µM
same,TGI,[45],41.9 µM
same,TGI,[46],22.9 µM
same,TGI,[47],> 100 µM
same,TGI,[48],26.2 µM
same,TGI,[49],50 µM
same,TGI,[59],39.6 µM
same,TGI,[51],22.6 µM
same,TGI,[52],28.3 µM
same,TGI,[53],25.7 µM
same,TGI,[54],39.1 µM
same,TGI,[55],41.7 µM
same,TGI,[56],30.4 µM
same,TGI,[57],24.1 µM
